Source: BindingDB's records for doi:10.1124/jpet.102.040162 (Sanofi-SynthÉLabo Recherche, 2002)
“And” between values parts separate entries of the source, which are not always exact repeats. Identical values can stand only once. Square brackets hold non-standard residues; d marks the D form. Peptide text beside a SMILES is read from it. NMeF = CN[C@@H](Cc1ccccc1)C(=O)O

Columns and labels:
Neuromedin-K receptor [1] = target: T1, Neuromedin-K receptor (Cavia porcellus, UniProt P30098)
T1 sequence (P30098 whole entry): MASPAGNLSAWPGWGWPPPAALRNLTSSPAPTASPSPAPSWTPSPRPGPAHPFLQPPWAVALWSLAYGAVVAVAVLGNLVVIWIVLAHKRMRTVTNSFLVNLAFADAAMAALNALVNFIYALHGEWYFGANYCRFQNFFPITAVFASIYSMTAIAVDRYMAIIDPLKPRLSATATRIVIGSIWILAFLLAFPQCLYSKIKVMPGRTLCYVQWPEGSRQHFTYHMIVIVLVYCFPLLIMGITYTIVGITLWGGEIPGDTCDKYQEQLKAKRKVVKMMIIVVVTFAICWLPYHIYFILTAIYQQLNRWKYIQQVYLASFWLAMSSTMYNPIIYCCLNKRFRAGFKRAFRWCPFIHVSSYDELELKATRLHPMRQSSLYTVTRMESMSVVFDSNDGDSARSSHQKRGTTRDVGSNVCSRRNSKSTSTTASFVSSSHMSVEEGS

Neuromedin-K receptor [2] = target: T2, Neuromedin-K receptor (Meriones unguiculatus, UniProt Q2YHR0)
T2 sequence (Q2YHR0 whole entry): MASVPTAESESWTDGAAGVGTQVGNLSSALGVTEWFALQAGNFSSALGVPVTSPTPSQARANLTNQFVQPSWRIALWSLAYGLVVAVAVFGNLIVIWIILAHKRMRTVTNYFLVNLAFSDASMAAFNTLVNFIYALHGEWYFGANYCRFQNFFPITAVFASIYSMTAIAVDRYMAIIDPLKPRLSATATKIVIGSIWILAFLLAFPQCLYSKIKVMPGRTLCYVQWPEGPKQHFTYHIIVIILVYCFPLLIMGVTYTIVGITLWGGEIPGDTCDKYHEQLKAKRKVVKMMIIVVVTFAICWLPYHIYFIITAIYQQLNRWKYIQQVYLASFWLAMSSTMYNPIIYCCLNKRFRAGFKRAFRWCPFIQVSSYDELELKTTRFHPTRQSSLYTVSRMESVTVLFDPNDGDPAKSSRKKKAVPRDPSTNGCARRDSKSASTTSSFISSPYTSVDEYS

Neuromedin-K receptor [3] = target: T3, Neuromedin-K receptor (Mus musculus, UniProt P47937)
T3 sequence (P47937 whole entry): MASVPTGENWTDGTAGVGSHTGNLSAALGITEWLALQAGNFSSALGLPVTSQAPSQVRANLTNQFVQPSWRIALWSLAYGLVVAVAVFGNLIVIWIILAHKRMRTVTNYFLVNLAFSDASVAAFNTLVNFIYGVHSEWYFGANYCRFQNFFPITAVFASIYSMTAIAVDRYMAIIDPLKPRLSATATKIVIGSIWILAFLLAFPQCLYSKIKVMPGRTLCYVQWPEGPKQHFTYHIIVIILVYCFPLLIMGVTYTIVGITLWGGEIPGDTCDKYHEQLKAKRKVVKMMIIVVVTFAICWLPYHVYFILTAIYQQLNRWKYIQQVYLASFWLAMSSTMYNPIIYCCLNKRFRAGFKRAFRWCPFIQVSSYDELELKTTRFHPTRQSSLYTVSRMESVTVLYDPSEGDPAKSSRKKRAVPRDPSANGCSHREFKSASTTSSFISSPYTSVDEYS

Neuromedin-K receptor [4] = target: T4, Neuromedin-K receptor (Homo sapiens, UniProt P29371)
T4 sequence (P29371 whole entry): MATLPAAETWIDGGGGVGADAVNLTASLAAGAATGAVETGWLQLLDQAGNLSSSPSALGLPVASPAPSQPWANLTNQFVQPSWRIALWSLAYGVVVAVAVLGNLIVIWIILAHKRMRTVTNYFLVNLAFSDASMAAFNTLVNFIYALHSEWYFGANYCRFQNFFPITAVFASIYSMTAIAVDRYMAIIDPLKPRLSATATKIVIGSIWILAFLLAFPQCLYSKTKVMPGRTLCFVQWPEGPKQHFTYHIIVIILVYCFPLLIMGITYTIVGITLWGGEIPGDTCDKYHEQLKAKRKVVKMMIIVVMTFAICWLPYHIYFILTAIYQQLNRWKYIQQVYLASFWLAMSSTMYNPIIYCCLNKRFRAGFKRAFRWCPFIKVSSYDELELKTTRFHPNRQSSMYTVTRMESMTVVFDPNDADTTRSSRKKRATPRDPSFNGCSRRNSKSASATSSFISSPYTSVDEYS

Substance-K receptor [5] = target: T5, Substance-K receptor (Cavia porcellus, UniProt Q64077)
T5 sequence (Q64077 whole entry): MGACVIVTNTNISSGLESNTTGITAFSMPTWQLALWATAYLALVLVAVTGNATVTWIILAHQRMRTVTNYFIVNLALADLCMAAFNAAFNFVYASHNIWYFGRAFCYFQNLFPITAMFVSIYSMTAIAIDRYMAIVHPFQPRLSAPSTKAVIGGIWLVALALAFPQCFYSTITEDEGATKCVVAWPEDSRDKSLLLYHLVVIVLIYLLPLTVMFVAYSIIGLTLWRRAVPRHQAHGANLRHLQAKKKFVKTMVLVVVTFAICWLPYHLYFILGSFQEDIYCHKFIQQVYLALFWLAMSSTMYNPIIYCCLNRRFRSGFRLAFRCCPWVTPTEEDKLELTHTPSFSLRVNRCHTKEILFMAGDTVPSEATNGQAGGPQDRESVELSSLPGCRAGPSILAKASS

Substance-P receptor [6] = target: Substance-P receptor (Rattus norvegicus, UniProt P14600)
Substance-P receptor [7] = target: Substance-P receptor (Cavia porcellus, UniProt P30547)
Substance-K receptor [8] = target: T6, Substance-K receptor (Homo sapiens, UniProt P21452)
T6 sequence (P21452 whole entry): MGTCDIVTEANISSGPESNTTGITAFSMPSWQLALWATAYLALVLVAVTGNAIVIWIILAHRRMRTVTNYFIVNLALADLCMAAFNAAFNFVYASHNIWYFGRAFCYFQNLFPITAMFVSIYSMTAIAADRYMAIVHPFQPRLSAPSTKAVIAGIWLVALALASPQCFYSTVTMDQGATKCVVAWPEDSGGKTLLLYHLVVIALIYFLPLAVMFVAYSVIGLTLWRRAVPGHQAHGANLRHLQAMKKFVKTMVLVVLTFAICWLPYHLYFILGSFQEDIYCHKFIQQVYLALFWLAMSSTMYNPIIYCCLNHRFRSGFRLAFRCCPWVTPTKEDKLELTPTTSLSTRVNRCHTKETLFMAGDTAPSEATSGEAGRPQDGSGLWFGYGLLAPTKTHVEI

Substance-K receptor [9] = target: T7, Substance-K receptor (Rattus norvegicus, UniProt P16610)
T7 sequence (P16610 whole entry): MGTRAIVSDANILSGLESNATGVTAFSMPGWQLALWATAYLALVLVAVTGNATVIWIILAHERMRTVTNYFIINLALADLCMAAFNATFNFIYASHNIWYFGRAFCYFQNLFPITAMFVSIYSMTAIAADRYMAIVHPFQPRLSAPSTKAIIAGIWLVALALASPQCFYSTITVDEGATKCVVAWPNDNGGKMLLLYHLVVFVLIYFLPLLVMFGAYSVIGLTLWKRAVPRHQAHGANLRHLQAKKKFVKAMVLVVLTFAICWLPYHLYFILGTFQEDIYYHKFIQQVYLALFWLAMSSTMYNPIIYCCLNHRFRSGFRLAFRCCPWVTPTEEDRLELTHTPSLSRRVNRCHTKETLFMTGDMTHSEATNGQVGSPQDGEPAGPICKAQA

Substance-P receptor (Rattus norvegicus, UniProt P14600), sequence (P14600 whole entry): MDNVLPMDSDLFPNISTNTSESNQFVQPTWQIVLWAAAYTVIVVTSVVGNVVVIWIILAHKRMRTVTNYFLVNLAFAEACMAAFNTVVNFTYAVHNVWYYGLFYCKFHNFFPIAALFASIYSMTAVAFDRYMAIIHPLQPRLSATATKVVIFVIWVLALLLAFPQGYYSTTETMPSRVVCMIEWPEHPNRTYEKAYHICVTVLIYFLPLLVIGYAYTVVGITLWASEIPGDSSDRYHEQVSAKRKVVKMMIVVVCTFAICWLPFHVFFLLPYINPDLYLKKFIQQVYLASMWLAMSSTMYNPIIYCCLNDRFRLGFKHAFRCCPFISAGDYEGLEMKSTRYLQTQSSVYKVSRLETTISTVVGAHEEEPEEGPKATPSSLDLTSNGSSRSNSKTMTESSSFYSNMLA
Substance-P receptor (Cavia porcellus, UniProt P30547), sequence (P30547 whole entry): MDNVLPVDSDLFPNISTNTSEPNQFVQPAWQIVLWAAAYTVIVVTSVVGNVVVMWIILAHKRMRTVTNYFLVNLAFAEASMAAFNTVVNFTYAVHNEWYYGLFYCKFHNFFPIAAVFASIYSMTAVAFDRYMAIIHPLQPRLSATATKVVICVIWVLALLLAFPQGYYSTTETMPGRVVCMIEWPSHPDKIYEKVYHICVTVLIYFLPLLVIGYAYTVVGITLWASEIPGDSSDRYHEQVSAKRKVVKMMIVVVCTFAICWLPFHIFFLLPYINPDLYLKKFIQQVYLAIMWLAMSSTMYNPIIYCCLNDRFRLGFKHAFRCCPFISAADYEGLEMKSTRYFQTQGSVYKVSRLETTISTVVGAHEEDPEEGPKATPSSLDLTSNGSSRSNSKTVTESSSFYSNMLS

Ki (Neuromedin-K receptor [1])	Ki (Neuromedin-K receptor [2])	Ki (Neuromedin-K receptor [3])	Ki (Neuromedin-K receptor [4])	Ki (Substance-K receptor [5])	Ki (Substance-P receptor [6])	Ki (Substance-P receptor [7])	Ki (Substance-K receptor [8])	Ki (Substance-K receptor [9])	Compound
0.43 nM	0.16 nM	0.053 nM	0.34 nM						CSCC[C@H](NC(=O)[C@H](CC(C)C)NC(=O)CNC(=O)[C@H](Cc1ccccc1)N(C)C(=O)[C@H](Cc1ccccc1)NC(=O)[C@H](Cc1ccccc1)NC(=O)[C@H](CC(=O)O)NC(=O)[C@H](Cc1cnc[nH]1)NC(=O)[C@H](CCSC)NC(=O)[C@@H](N)CC(=O)O)C(N)=O [NKB [MePhe7]] (H-DMHDFF[NMeF]GLM-NH2)
				2.3 nM					CSCC[C@H](NC(=O)[C@H](CC(C)C)NC(=O)CNC(=O)[C@@H](NC(=O)[C@H](Cc1ccccc1)NC(=O)[C@H](CO)NC(=O)[C@H](CC(=O)O)NC(=O)[C@@H](NC(=O)[C@H](CCCCN)NC(=O)[C@@H](N)Cc1cnc[nH]1)[C@@H](C)O)C(C)C)C(N)=O [Neurokinin alpha]
21 nM	544 nM	> 10000 nM	206 nM	71 nM	1.07 nM and 1.15 nM	0.23 nM	24 nM	34 nM	CC(C)(C(N)=O)C1CCN(CCC2(c3ccc(Cl)c(Cl)c3)CN(C(=O)Cc3cc(C(F)(F)F)cc(C(F)(F)F)c3)CCO2)CC1 (centres undefined) [SSR240600]
